From ChEMBL document CHEMBL5390312, “Discovery of Tumor-Targeted 6-Methyl Substituted Pemetrexed and Related Antifolates with Selective Loss of RFC Transport” (ACS Med Chem Lett, 2023)
The source made the active and inactive calls. The calls are words filed in the database; no cut-off is given here.

Key:
Format in all cases: functional, cell-based
[1] = Antiproliferative activity against chinese hamster R2 cells assessed as inhibition of cell growth incubated for 96 h by CellTiter-Blue cell viability assay; conditions: Cricetulus griseus, R2, 96 h
[2] = system: KB; test: Antiproliferative activity against human KB cells assessed as inhibition of cell growth upto 1000 nM incubated for 96 hrs in the presence of thymidylate by CellTiter-Blue cell viability assay
[3] = system: KB; test: Antiproliferative activity against human KB cells assessed as inhibition of cell growth upto 1000 nM incubated for 96 hrs in the presence of adenosine by CellTiter-Blue cell viability assay
[4] = system: KB; test: Antiproliferative activity against human KB cells assessed as inhibition of cell growth upto 1000 nM incubated for 96 hrs in the presence of thymidine by CellTiter-Blue cell viability assay
[5] = system: KB; test: Antiproliferative activity against human KB cells assessed as inhibition of cell growth upto 1000 nM incubated for 96 hrs in the presence of glycine by CellTiter-Blue cell viability assay
[6] = system: KB; test: Antiproliferative activity against human KB cells assessed as inhibition of cell growth upto 1000 nM incubated for 96 hrs in the presence of AICA by CellTiter-Blue cell viability assay

Row | Compound | IC50 [1] [nM] | Activity [2] | Activity [3] | Activity [4] | Activity [5] | Activity [6]
1 | Nc1nc2[nH]cc(CCCc3ccc(C(=O)N[C@@H](CCC(=O)O)C(=O)O)cc3)c2c(=O)[nH]1 | > 1000 | Active | inactive | inactive | inactive | inactive
2 | Cc1[nH]c2nc(N)[nH]c(=O)c2c1CCCc1ccc(C(=O)N[C@@H](CCC(=O)O)C(=O)O)cc1 | > 1000 | – | inactive | – | – | inactive
3 | Nc1nc2[nH]cc(CCc3ccc(C(=O)N[C@@H](CCC(=O)O)C(=O)O)c(F)c3)c2c(=O)[nH]1 | > 1000 | Active | inactive | inactive | – | inactive
4 | Nc1nc2[nH]cc(CCc3ccc(C(=O)N[C@@H](CCC(=O)O)C(=O)O)cc3)c2c(=O)[nH]1 [PEMETREXED] | > 1000 | Active | inactive | inactive | – | inactive
5 | Nc1nc2[nH]cc(CCc3ccc(C(=O)N[C@@H](CCC(=O)O)C(=O)O)s3)c2c(=O)[nH]1 | > 1000 | – | – | – | – | –
6 | Cc1[nH]c2nc(N)[nH]c(=O)c2c1CCc1ccc(C(=O)N[C@@H](CCC(=O)O)C(=O)O)s1 | > 1000 | – | inactive | – | – | inactive
7 | Cc1[nH]c2nc(N)[nH]c(=O)c2c1CCc1ccc(C(=O)N[C@@H](CCC(=O)O)C(=O)O)c(F)c1 | > 1000 | – | inactive | – | – | inactive
8 | Cc1[nH]c2nc(N)[nH]c(=O)c2c1CCc1ccc(C(=O)N[C@@H](CCC(=O)O)C(=O)O)cc1 | > 1000 | – | inactive | – | – | inactive
